# Source: publication PMC11783601, “Analogue-Sensitive Inhibition of Histone Demethylases Uncovers Member-Specific Function in Ribosomal Protein Synthesis” (Journal of the American Chemical Society, 2025)
# Biological target: T1, asKDM4A (HA-tagged F185A) in HEK293T cells (Homo sapiens, UniProt O75164, F185A)
# T1 construct: we generated the F185A mutation in full-length KDM4A carrying all of the functional domains; host or cells: HEK293T
# T1 sequence (O75164 1-1064 F185A): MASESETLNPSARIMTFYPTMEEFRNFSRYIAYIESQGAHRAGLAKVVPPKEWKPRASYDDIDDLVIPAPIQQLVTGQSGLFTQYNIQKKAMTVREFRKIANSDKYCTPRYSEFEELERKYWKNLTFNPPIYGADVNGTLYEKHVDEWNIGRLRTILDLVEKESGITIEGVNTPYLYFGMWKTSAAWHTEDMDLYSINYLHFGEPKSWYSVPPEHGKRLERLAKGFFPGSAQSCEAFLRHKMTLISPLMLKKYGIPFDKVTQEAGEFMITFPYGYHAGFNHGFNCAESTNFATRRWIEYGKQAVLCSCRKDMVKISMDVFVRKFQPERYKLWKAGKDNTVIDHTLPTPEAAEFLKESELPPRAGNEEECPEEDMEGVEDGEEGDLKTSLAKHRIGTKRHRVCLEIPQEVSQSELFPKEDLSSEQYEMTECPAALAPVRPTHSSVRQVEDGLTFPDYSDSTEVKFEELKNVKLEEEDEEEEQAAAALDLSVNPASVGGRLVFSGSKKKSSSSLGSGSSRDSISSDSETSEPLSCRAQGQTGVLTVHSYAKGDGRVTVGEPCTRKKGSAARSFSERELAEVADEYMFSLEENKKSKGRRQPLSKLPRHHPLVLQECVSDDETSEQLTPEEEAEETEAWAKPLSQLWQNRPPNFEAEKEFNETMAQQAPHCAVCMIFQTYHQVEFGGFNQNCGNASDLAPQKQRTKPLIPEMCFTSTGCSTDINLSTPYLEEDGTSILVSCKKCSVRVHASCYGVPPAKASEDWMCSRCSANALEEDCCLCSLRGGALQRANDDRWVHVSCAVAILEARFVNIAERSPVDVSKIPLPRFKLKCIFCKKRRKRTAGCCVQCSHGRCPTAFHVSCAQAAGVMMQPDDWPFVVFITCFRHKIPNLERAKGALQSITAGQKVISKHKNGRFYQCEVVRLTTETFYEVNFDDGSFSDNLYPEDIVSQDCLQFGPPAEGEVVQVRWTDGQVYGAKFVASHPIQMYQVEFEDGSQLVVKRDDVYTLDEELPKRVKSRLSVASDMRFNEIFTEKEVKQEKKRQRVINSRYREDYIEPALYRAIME
# Assay: Time-dependent treatment and withdrawal of inhibitor, fixed cell imaging of H3K9me3 and BrdU
# Assay type: cell-based
# Experimental: We exploited the reversible mode of action of the allele-specific inhibitor to gain further insights into the temporal regulation of rRNA expression by histone demethylation. We reasoned that withdrawal of the reversible inhibitor from the cell-culture medium would restore the activity of asKDM4A in a temporally defined manner (Figure 8A). HEK293T cells expressing the F185A variant carrying an HA tag were treated with 6B and fixed at various time points. H3K9me3 levels were quantified in HA-positive cells to ensure that only cells with asKDM4A were considered for analysis. Within 3 h of compound treatment, a robust level of H3K9me3 ensued (Figure 8B). Subsequently, the same cells were allowed to grow in inhibitor-free media and examined for histone demethylation by fixed cell imaging.
# To investigate if the restoration of H3K9me3 demethylation is directly linked to rRNA activation, cells overexpressing asKDM4A were first treated with 6B for 3 h followed by compound removal and brief exposure to 5FU before being fixed at different time points for immunofluorescence imaging (Figure 8A,C). […] We recorded a steady recovery of BrdU signal, reaching its maximum within 4–5 h postwithdrawal (equivalent to no 6B treatment) (Figure 8C), consistent with reactivation of asKDM4A as observed above. A relatively sluggish 5FU incorporation into rRNA (Figure 8C), compared to the rapid histone demethylation (Figure 8B), is likely due to the time required to assemble active transcriptional machinery at the rRNA promoters following the removal of the silencing H3K9me3 mark. Achieving such precise temporal control of protein function would be challenging using genetic tools. Collectively, employing the mutant and cognate inhibitor pair, we mapped a highly dynamic signaling pathway linking KDM4A-mediated locus-specific histone demethylation with upregulation of rRNA expression to modulate downstream processes such as ribosomal assembly and protein synthesis. […]
# 19. Fixed cell immunofluorescence staining
# Cells were grown on poly-D-lysine (Gibco A3890401) treated glass coverslips (ThermoScientific 12-545-81P) overnight and transfected the next day with 300 ng KDM4A WT/F185A using […] of lipofectamine 2000 (Invitrogen 11668019). The cells were incubated overnight and treated with indicated inhibitor at varying time points. When probing rRNA transcription, cells were incubated with 2 mM 5-Fluorouridine (Sigma F5130) for 15 minutes. Cells were washed three times with phosphate buffered saline (PBS) at pH 7.6 (Corning 21040CV), fixed with 2% paraformaldehyde in PBS (ThermoFisher AAJ19943K2) for 15 minutes at room temperature, washed with PBS three times, and permeabilized with 0.1% tritonX (Fisher BP151-100) in PBS for 15 minutes. Next, coverslips were blocked with 2% Bovine Serum Albumin (BSA Fisher BP1600-100) in PBS for 1 hour at room temperature, coverslips were incubated with primary antibody diluted in 0.5% BSA PBS (anti-H3K9me3: Cell Signaling Technology cat: 13969S host:rabbit 1:1000; anti-HA: Cell Signaling Technology host:mouse, cat: 2367S or host:rabbit, cat: […]
# hour at room temperature, then incubated with secondary antibodies diluted in 0.5% BSA PBS (anti-mouse—488: Invitrogen host: goat, cat: A-11001 or anti-rabbit—cy3: Invitrogen host: goat, […]
# cat: A10520, both dilutions 1:1000), between each step coverslips were washed five times with 0.5% BSA PBS. The nuclei were stained with Hoechst stain 0.01 mg/mL in H2O (Sigma B2883-25MG) for 30 seconds, washed with PBS and finally adhered to a slide with gelvatol. The cells were imaged at University of Pittsburgh Center for Biological Imaging on an Olympus Fluoview […]
# 20. Quantification of fixed-cell imaging data
# TIF images obtained from confocal microscopy experiments were quantified in ImageJ. Images were converted to 8-bit images and then thresholded to remove background signal. All images within the same experiment used the same threshold values. For concentration dependent imaging […]
# [1] = HEK293T cells expressing KDM4A-F185A, 6B for 3 h then withdrawal
structure (smiles),measurement,setting,value
"CC(C)CC(NC(=O)C(=O)OCc1cccc(C(F)(F)F)c1)C(=O)O [6B, L-Leu TFMB-ester NOG]",time of compound treatment until a robust level of H3K9me3 ensued,HA-positive HEK293T cells expressing F185A,up to 3 h
same,5FU incorporation after compound withdrawal,[1],gradual increase in 5FU incorporation
same,H3K9me3 after compound withdrawal,[1],rapid H3K9me3 demethylation
same,time postwithdrawal until BrdU signal reached its maximum,"after 3 h 6B treatment and removal, equivalent to no 6B treatment",4 to 5 h
same,BrdU signal (5FU incorporation),cells overexpressing asKDM4A treated with 6B for 3 h,significant decrease in BrdU signal
same,time after compound removal until asKDM4A regained its demethylase activity,"inhibitor-free media, activity increased for up to 3 h",≤ 1 h
